Tested on: MV-4-11 cells
Assay: Gene expression microarray analysis (Affymetrix PrimeView) and GSEA
Format: cell-based, human
Conditions: gene FGFR1OP; ACY-1035 1 mM; LIST F

Compound: Nc1ccc(-c2cccs2)cc1NC(=O)c1ccc2c(c1)cc(C1CC1)n2CCN1CCOCC1 [ACY-1035]
- RFU, FGFR1OP (ProbeSet 11751329_s_at): 243.91 RFU

Reference: publication PMC5218480 (PLoS ONE, 2017)
